Test results: paper PMC11111404, “Discovery of potent small-molecule inhibitors of lipoprotein(a) formation” (Nature, 2024)
Where “and” joins values, the source holds several entries; their conditions need not be identical. Equal values may be shown once. Read-outs that look alike come from different tables or passages of the source.

Assays:
[1] = biological target: T1, apo(a) KIV2 (Homo sapiens, UniProt P08519); test: ITC binding to apo(a) KIV2; conditions: for binding to KIV2 / Kd: ITC; for binding to KIV2: in words; for Fold-difference (KIV2:KIV8): ratio of ITC Kd values KIV2:KIV8
T1 construct: made in house
T1 sequence (P08519 141-219 limits assumed): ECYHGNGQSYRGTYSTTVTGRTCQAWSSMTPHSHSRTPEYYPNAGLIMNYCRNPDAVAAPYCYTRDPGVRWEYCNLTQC
Procedure: The nucleotide sequence encoding the human LPA gene (NP_005568.2) was inserted into a mammalian expression vector containing a cytomegalovirus promoter. Protein expression was performed by transient transfection of human embryonic kidney 293 (HEK293) cells cultured in serum-free medium. The culture medium was collected five days after transfection and human apo(a) protein was purified using L-lysine affinity chromatography. Nucleotide sequences encoding various KIV domains of human apo(a) and human and rat plasminogen were inserted into a pET21a Escherichia coli expression vector. Bacterial BL21(DE3) was used as the expression host, and the induction of protein expression was performed in 2× TY medium with 1 mM isopropyl β-D-1-thiogalactopyranoside at 37 °C for 5 h. Cells were collected and stored at –80 °C for subsequent protein purification and refolding. The frozen cell pellets were lysed and inclusion bodies were purified. The protein refolding was performed using the rapid-dilution method, and the refolded proteins were further purified by size-exclusion chromatography. All protein concentrations were determined by A280.
Experiments were performed on a MicroCal Auto-iTC200 titration calorimeter (Malvern Panalytical), with a cell volume of 200 μl and a 40-μl microsyringe. Experiments were performed at 25 °C while stirring at 750 rpm in ITC buffer (50 mM phosphate buffer at pH 8.0). The microsyringe was loaded with a solution of the respective compounds, with the concentration measured by quantitative nuclear magnetic resonance, and was inserted into the calorimetric cell prefilled with the respective recombinant proteins of known concentration in ITC buffer. The system was equilibrated to 25 °C and an extra delay of 60 s was applied. The first titrations were performed using an initial control injection of 0.5 μl, followed by 18 identical injections of 2 μl, with a duration of 4 s per injection and 150-s intervals between injections. The second titration was performed over the first titration without cleaning the cell and was carried out with continuous injections as an automation method in a MicroCal Auto-iTC200. The second titrations were performed using 19 identical injections of 2 μl, with a duration of 4 s per injection and 150-s injection intervals. The data were corrected for ligand heats of dilution and were deconvoluted using MicroCal PEAQ-ITC Analysis Software to yield the enthalpy of binding (ΔH) and the binding constant (K). Thermodynamic parameters were calculated using the basic equation of thermodynamics (ΔG = ΔH – TΔS = –RTlnKd), where ΔG, ΔH and ΔS are the changes in free energy, enthalpy and entropy of binding, respectively; Kd is the equilibrium dissociation constant; T is the absolute temperature (kelvins); and R is the gas constant (1.987 cal mol^−1 K^−^1). A single-binding-site model was used in MicroCal PEAQ-ITC Analysis Software v.0.9.

[2] = Drug concentration in mouse blood after oral dosing; format: in vivo; conditions: female, whole blood (dried blood spots), day 5, read-out: Drug concentration, 4-h time point
Procedure: (§1) The LPA gene (GenBank accession code NM_005577) encoding the human apo(a) protein with a signal peptide, one KIV type 1, six KIV type 2 repeats, one each of KIV types 3–10, one KV and one protease domain was subcloned into a transgenic vector containing a mouse albumin promoter cassette and a human growth hormone polyadenylation signal. The transgenic mouse line was generated by pronucleus injection of the LPA transgenic vector. Eight individual transgenic founder mice were assessed for germline transmission of LPA by genotyping and assessment of the levels of apo(a) in the plasma. Positive founder mice were crossed with ApoB100 transgenic mice (Taconic model 1004), and the resulting mouse line nomenclature (B6.SJL-Tg(APOB)1102Sgy Tg(Alb-LPA)32Arte) was selected on the basis of the confirmation of germline transmission, the identification of LPA and huApoB100 transgenes and the levels of Lp(a) in the plasma. Mice hemizygous for both transgenes were used for pharmacology studies. The studies were conducted in female Lp(a) double transgenic mice (age around 7–17 months). Mice were housed in cages with a standard light cycle (12-h light, 12-h dark), at room temperature (22 ± 4 °C), with a relative humidity of 30–70%. Mice were identified by numbers on the cage cards. After arrival, mice were fed on a normal diet (Harlan Teklad diet 2014). Mice were randomized to treatment groups (n = 5 per group, unless otherwise noted) by body weight and baseline plasma Lp(a) concentration using a block randomized allocation tool (BRAT) for the study. In an example Lp(a) transgenic mouse study in which 66 mice were prescreened for baseline Lp(a) levels, the average Lp(a) level was 45 ± 1.8 µg ml^−1 (range 20–78 µg ml^−1). Mice were dosed with various compounds in vehicle (10 ml kg^−1, 1% hydroxyethyl cellulose (HEC), 0.25% Tween-80, Antifoam) or with vehicle alone as a control orally BID for five days. Blood samples were collected by tail bleeds at designated times, and Lp(a) levels were determined by ELISA by an investigator who was blinded to group allocation. In brief, lipoprotein particles were captured by a goat anti-Lp(a)-antibody-coated plate (Abcam ab31675, diluted 1:12,500 in HEPES-buffered saline), the plates were washed and samples were detected using an HRP-conjugated goat anti-apoB antibody (Abcam ab27622, diluted 1:3,000). Colorimetric peroxidase substrate 3,3’,5,5’-TMB was added, and the reaction was stopped using 1 N sulfuric acid. Absorbance at 450 nm was read on a Molecular Devices SpectraMax plate reader. Blood samples were collected at four hours after dosing on day 5 of dosing to confirm exposure. Full pharmacokinetic (PK) profiles were not evaluated. Concentrations of compounds were evaluated from dried blood spots through a non-Good Laboratory Practice (GLP) liquid chromatography with tandem mass spectrometry (LC–MS/MS) assay. Data were analysed in GraphPad Prism v.9.5.1

[3] = system: Lp(a); test: Lp(a) levels in LPA × ApoB100 transgenic mice; format: in vivo, mouse; set-up: Lp(a) / Diff_vs_Vehicle: unit not given here; conditions: for % max Lp(a) decrease (dose, mg/kg): Lp(a) transgenic mice section; for % Lp(a) max decrease / ED50: BID, 5 days dosing; for Percent_change_from_Vehicle / Diff_vs_Vehicle: Lp(a); for Diff_vs_Vehicle: group statistics; for ED50: Mus musculus, 120 h
Procedure: as §1

[4] = biological target: T2, Lp(a) assembly (recombinant human 16K apo(a) and apoB) (Homo sapiens, UniProt P08519); test: In vitro Lp(a) assembly assay; format: biochemical
T2 construct: containing one KIV type 1, six KIV type 2 repeats, one each of KIV types 3–10 and one KV; expressed in transfected cells; host or cells: Conditioned medium of HEK293 (CRL-1573) stably expressing 16K apo(a), combined with conditioned medium of wild-type HepG2 (HB-8065) for endogenous apoB
Procedure: HepG2 cells (HB-8065, ATCC) were cultured in Dulbecco’s modified Eagle’s medium, supplemented with 10% fetal bovine serum, 20 mM 4-(2-hydroxyethyl)-1-piperazineethanesulfonic acid (HEPES) and 100 U ml^−1 penicillin–streptomycin. apoB-conditioned media were collected after 24 h of culture at 37 °C and 5% CO2 from confluent wild-type HepG2 cells that endogenously express and secrete apoB. Apo(a)-conditioned media were collected after 24 h of culture at 37 °C and 5% CO2 from HEK293 cells (CRL-1573, ATCC) that stably express and secrete recombinant human 16K apo(a) protein containing one KIV type 1, six KIV type 2 repeats, one each of KIV types 3–10 and one KV.
The assembly assay was conducted in 96-well polypropylene plates by combining HepG2 and apo(a)-HEK293-conditioned media in the presence of a range of compound concentrations. After a two-hour incubation period at 37 °C, the reaction was stopped by the addition of 6-aminocaproic acid. Lp(a) was detected using a sandwich enzyme-linked immunosorbent assay (ELISA), with a polyclonal goat anti-apo(a) capture antibody (Abcam ab31675) and a biotin-conjugated, polyclonal goat anti-apoB detection antibody (Abcam ab20898). In brief, ELISA plates were coated with 100 μl of the capture antibody at a 1:12,500 dilution (around 4 μg ml^−1) into HEPES-buffered saline (HBS), incubated overnight at 4 °C, washed and blocked by the addition of 200 μl of 1% casein. After removal of the blocking buffer, 20 μl of each of the assembly reactions or of a dilution series of purified human Lp(a) (Athens Research, 12-16-121601), diluted 1:5 into HBS supplemented with 0.5% casein, were added to the ELISA plate. […] Absorbance at 450 nm was measured on an Envision plate reader.
The concentration of Lp(a) formed in each test condition was determined on the basis of the standard curve constructed from the purified human Lp(a) used as a reference standard, and was normalized to high (buffer) and low (no apoB) controls. […] Data were analysed in GraphPad Prism v.9.5.1.

[5] = Lp(a) transgenic mice, oral BID, five days
[6] = transgenic mice, 3mpk oral BID five days, individual animal, 3 mg/kg
[7] = transgenic mice, 10mpk oral BID five days, individual animal, 10 mg/kg
[8] = transgenic mice, 30mpk oral BID five days, individual animal, 30 mg/kg
[9] = transgenic mice, 100mpk oral BID five days, individual animal, 100 mg/kg
[10] = transgenic mice, 1mpk oral BID five days, individual animal, 1 mg/kg
[11] = 1mpk, individual animals, Fig 3f data
[12] = 3mpk, individual animals, Fig 3f data
[13] = 10mpk, individual animals, Fig 3f data
[14] = 30mpk, individual animals, Fig 3f data

T2 sequence (P08519 20-2040): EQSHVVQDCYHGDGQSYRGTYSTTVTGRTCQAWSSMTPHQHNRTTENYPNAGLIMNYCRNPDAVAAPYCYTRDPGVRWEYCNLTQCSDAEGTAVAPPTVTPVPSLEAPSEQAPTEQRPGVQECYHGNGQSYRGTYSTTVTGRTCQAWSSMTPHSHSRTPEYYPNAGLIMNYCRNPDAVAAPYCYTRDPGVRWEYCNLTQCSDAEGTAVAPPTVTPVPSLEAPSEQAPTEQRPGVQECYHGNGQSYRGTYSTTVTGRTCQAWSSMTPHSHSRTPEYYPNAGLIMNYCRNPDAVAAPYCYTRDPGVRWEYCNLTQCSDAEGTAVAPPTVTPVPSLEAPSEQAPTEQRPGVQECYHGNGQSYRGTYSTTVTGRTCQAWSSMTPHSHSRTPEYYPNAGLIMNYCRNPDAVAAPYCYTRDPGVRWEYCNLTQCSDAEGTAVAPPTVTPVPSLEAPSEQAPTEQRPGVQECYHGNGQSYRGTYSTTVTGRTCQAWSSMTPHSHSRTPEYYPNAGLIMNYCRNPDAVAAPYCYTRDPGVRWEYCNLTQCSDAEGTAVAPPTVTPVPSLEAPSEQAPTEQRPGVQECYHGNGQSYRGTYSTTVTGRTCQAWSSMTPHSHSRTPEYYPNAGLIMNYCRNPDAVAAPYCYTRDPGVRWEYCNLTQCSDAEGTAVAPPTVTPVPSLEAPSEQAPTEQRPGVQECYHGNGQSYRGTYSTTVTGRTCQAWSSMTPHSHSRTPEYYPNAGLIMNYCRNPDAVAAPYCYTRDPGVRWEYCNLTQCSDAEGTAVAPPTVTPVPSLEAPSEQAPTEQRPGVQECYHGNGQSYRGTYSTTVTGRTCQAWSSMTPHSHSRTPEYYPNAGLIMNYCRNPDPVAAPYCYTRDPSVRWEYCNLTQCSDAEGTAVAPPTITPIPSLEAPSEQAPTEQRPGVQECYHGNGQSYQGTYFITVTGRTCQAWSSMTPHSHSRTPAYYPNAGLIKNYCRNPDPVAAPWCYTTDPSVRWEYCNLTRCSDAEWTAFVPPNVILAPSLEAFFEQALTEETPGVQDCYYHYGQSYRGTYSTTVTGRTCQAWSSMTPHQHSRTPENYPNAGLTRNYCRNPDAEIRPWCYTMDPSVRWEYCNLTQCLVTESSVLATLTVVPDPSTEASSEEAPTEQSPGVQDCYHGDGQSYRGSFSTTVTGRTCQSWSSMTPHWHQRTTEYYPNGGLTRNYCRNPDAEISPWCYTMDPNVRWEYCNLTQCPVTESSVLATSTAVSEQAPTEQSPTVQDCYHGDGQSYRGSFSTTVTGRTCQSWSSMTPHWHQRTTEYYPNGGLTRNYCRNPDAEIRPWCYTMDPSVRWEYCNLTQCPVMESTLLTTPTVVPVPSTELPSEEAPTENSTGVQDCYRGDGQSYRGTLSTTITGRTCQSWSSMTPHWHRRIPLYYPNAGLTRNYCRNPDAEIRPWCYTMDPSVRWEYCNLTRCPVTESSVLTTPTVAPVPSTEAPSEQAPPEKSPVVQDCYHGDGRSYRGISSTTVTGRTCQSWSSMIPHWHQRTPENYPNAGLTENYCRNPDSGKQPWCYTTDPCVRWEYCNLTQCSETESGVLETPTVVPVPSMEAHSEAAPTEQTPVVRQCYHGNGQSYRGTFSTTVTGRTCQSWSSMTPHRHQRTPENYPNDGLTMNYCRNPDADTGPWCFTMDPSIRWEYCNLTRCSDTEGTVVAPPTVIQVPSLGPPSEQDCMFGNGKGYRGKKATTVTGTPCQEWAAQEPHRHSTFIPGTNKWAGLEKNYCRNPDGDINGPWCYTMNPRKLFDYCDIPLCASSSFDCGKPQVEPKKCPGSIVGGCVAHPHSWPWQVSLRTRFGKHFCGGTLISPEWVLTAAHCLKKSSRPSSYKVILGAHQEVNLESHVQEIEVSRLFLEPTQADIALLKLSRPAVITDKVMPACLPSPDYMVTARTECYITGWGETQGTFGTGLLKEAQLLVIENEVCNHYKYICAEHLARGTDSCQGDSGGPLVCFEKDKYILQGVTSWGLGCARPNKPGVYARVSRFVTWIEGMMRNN

Row | Compound | binding to KIV2 [1] | concentration at 4 h ([2]; oral 3 mg/kg) | concentration at 4 h ([2]; oral 10 mg/kg) | concentration at 4 h ([2]; oral 30 mg/kg) | % Lp(a) max decrease ([3]; Lp(a) transgenic mice) | ED50 for Lp(a) reduction [3, 5] | Percent_change_from_Vehicle [3, 6] | Diff_vs_Vehicle ([3]; transgenic mice, 3mpk) | Percent_change_from_Vehicle [3, 7] | Diff_vs_Vehicle ([3]; transgenic mice, 10mpk) | Percent_change_from_Vehicle [3, 8] | Diff_vs_Vehicle ([3]; transgenic mice, 30mpk) | ED50 ([3]; Lp(a) transgenic mice) | Lp(a) [3, 6] | Lp(a) [3, 7] | Lp(a) [3, 8] | Kd [1] | Fold-difference (KIV2:KIV8) [1] | concentration at 4 h ([2]; oral 1 mg/kg) | Diff_vs_Vehicle ([3]; transgenic mice, 1mpk) | also measured
1 | Cl.O=C(O)[C@@H](Cc1ccccc1)[C@H]1CCNC1 [LSN3353871] | does not bind | 13600 nM | 21600 nM | 28000 nM | 78% | 14 mg/kg | -29.9395% and -21.6818% and -23.4274% and -25.3773% and -20.1775% | -3.8966 | -56.5511% and -68.7767% and -51.9146% and -54.3536% | -9.353 | -73.0355% and -73.0232% and -55.5978% and -55.3749% and -63.9731% | -10.3714 | 14 mg/kg | 11.318 and 12.652 and 12.37 and 12.055 and 12.895 | 7.019 and 5.044 and 7.768 and 7.374 | 4.356 and 4.358 and 7.173 and 7.209 and 5.82 | – | – | – | – | concentration at 4 h ([2]; oral 100 mg/kg): 38000 nM; % max Lp(a) decrease (dose, mg/kg) ([3]; dose 20 mg/kg): 40 (20) %; maximum decrease in Lp(a) levels [3, 5]: up to 78%; Percent_change_from_Vehicle [3, 9]: -69.9343% and -77.4368% and -71.3085% and -83.0203% and -88.6967%; Diff_vs_Vehicle ([3]; transgenic mice, 100mpk): -12.6134; Lp(a) [3, 9]: 4.857 and 3.645 and 4.635 and 2.743 and 1.826
2 | Cl.Cl.O=C(Nc1cccc(C[C@H](C(=O)O)[C@H]2CCNC2)c1)Nc1cccc(C[C@H](C(=O)O)[C@H]2CCNC2)c1 [LSN3441732] | ruled out | 432 ± 203 nM | 465 ± 167 nM | 625 ± 184 nM | 79% | 4 mg/kg | -66.5236% and -51.6627% and -46.9156% and -38.737% and -24.3395% | -17.8805 | -76.5617% and -56.1229% and -72.4537% and -56.7885% and -51.1958% | -24.5369 | -63.8115% and -85.6659% and -79.4795% and -86.8495% and -81.3358% | -31.1209 | 4 mg/kg | 13.1164 and 18.9391 and 20.799 and 24.0035 and 29.6445 | 9.183 and 17.1915 and 10.7929 and 16.9307 and 19.122 | 14.179 and 5.616 and 8.04 and 5.1525 and 7.3128 | 130000 nM | >13000 | 147 ± 126 nM | -9.583 | % max Lp(a) decrease (dose, mg/kg) ([3]; dose 30 mg/kg): 79 (30) %; mean maximal inhibition of Lp(a) ([3]; Lp(a) transgenic mice, 30 mg kg^−1 oral BID, five days): 79%; Percent_change_from_Vehicle [3, 10]: -26.3802% and -29.1802% and -35.4498% and -52.0742% and 20.793%; Lp(a) [3, 10]: 28.845 and 27.7479 and 25.2914 and 18.7778 and 47.3279; IC50 [4]: 0.18 nM
3 | O=C(O)[C@@H](Cc1cccc(CN(Cc2cccc(C[C@H](C(=O)O)[C@H]3CCNC3)c2)Cc2cccc(C[C@H](C(=O)O)[C@H]3CCNC3)c2)c1)[C@H]1CCNC1 [LY3473329] | – | 97.3 ± 39.1 nM | 215 ± 34.6 nM | 264 ± 39.3 nM | 91.2% | – | – | -6.3714 | – | -8.8948 | – | -9.8776 | 3 mg/kg | – | – | – | 3900 nM | 177 | 28.4 ± 11 nM | -1.9212 | Lp(a) [3, 11]: 7.93 and 10.403 and 8.938 and 8.912 and 9.52; Percent_change_from_Vehicle (Lp(a)) [3, 11]: -28.3118% and -5.956% and -19.1994% and -19.4345% and -13.9381%; Lp(a) [3, 12]: 3.393 and 6.014 and 3.723 and 4.125 and 6.197; Percent_change_from_Vehicle (Lp(a)) [3, 12]: -69.3269% and -45.6327% and -66.3436% and -62.7095% and -43.9784%; Lp(a) [3, 13]: 2.124 and 2.374 and 3.019 and 1.686 and 1.632; Percent_change_from_Vehicle (Lp(a)) [3, 13]: -80.7988% and -78.5388% and -72.7079% and -84.7584% and -85.2465%; Lp(a) [3, 14]: 1.195 and 0.994 and 1.853 and 0.894 and 0.985; Percent_change_from_Vehicle (Lp(a)) [3, 14]: -89.1971% and -91.0141% and -83.2487% and -91.9181% and -91.0955%; % max Lp(a) decrease (dose, mg/kg) ([3]; dose 100 mg/kg): 91.2 (100) %; IC50 [4]: 0.09 nM
